Tests used:
LNCAP [1] = assay: Inhibition of cell proliferation, LNCAP; format: cell-based, human; conditions: 10^−11 M to 10^−7 M, 6-7 days
Experimental: (§1) The cell lines, LNCAP and PC-3, which are derived from human prostate adenocarcinoma, are seeded in six-well tissue culture plates at a density of about 50,000 cells/plate. After the cells have attached and stabilized, about 2-3 days, the medium is replenished with medium containing vehicle or the active vitamin D analogue 1α,24-(OH)2D2, at concentrations from 10^−11 M to 10^−7 M. Medium containing test analogue or vehicle is replaced every three days. After 6-7 days, the medium is removed, the cells are rinsed, precipitated with cold 5% trichloroacetic acid, and washed with cold ethanol. The cells are solubilized with 0.2 N sodium hydroxide, and the amount of DNA determined by standard procedures.

[2] = system: advanced androgen-independent prostate cancer; assay: Treatment of advanced androgen-independent prostate cancer, open-labeled study; format: in vivo, human; conditions: for progression of metastatic disease: after one and two years
Source text: Patients with advanced androgen-independent prostate cancer participate in an open- labeled study of 1α,24-(OH)2D2. […] On admission to the study, patients begin a course of therapy with oral 1α,24-(OH)2D2 lasting 26 weeks, while discontinuing any previous use of calcium supplements, vitamin D supplements, and vitamin D hormone replacement therapies. During treatment, the patients are monitored at regular intervals for: (1) hypercalcemia, hyperphosphatemia, hypercalciuria, hyperphosphaturia and other toxicity; (2) evidence of changes in the progression of metastatic disease; and (3) compliance with the prescribed test drug dosage.
The study is conducted in two phases. During the first phase, the maximal tolerated dosage (MTD) of daily oral 1α,24-(OH)2D2 is determined by administering progressively higher dosages to successive groups of patients. All doses are administered in the morning before breakfast. […] Subsequent groups of patients are treated with 50.0, 75.0 and 100.0 μg/day.
During the second phase, patients are treated with 1α,24-(OH)2D2 for 24 months at 0.5 and 1.0 times the MTD.

PC-3 = assay: Inhibition of cell proliferation, PC-3; format: cell-based, human; conditions: 10^−11 M to 10^−7 M, 6-7 days
Experimental: as §1

LNCAP [3] = assay: Cell differentiation, PSA production in LNCaP; format: cell-based, human; conditions: 10^−11 M to 10^−7 M, 6-7 days
Experimental: Using the techniques of Skowronski et al., 132 Endocrinology (1993) 1952-1960 and 136 Endocrinology (1995) 20-26, both of which are incorporated herein by reference, cells of the cell line, LNCaP, which is derived from a human metastatic prostate adenocarcinoma and known to express PSA, are seeded in six-well tissue culture plates at a density of about 50,000 cells/plate. After the cells have attached and stabilized, about 2-3 days, the medium is replenished with medium containing vehicle or the active vitamin D analogue, 1α,24-(OH)2D2, at concentrations from 10^−11 M to 10^−7 M. After 6-7 days, medium is removed and stored at −20° C. for prostate specific antigen (PSA) analysis.
The cells from parallel cultures are rinsed, precipitated, and the amount of DNA determined by standard procedures. PSA is measured by standard known methods.

C=C1/C(=C\C=C2/CCC[C@]3(C)[C@@H]([C@H](C)/C=C/C(C)(O)C(C)C)CC[C@@H]23)C[C@@H](O)C[C@@H]1O (relative stereo) [1α,24-(OH)2D2, 5,6-cis-1α,24-dihydroxyvitamin D2]
cell number (amount of DNA) versus control cultures (LNCAP [1]): significantly fewer cells than the control cultures | bone pain associated with metastatic disease ([2]; MTD for at least six months): significantly diminished | maximum levels of circulating 1α,24-(OH)2D2 ([2]; at the highest dosages): above 100 pg/mL | circulating levels of 1α,25-(OH)2D3 ([2]; during treatment): suppressed, often to undetectable levels | progression of metastatic disease ([2]; higher dosage (1.0 times the MTD)): stable disease and partial or complete remission in many patients | levels of circulating 1α,24-(OH)2D2 versus dosage ([2]; in vivo): increase proportionately with the dosage administered | serum and urine calcium ([2]; in vivo): elevated in a dose responsive manner | progression of metastatic disease ([2]; lower dosage (0.5 times the MTD)): stable disease or partial remission in many patients | cell number (amount of DNA) versus control cultures (PC-3): significantly fewer cells than the control cultures | PSA expressed as mass of PSA/cell versus control cultures (LNCAP [3]): significantly more PSA than control cultures

From patent US6538037B2, “Methods for preparation and use of 1α,24(S)-dihydroxyvitamin D2” (Bone Care International, Inc., priority 1991, dated 2003)
